These results are taken from patent US11458138B2 (Novartis AG, priority 2017, dated 2022).

The subject of experiment [1] is YAP nuclear translocation in HaCaT cells. Put plainly: YAP Translocation Assay (HaCaT Cells). The class given is cell-based, human. Particulars: Homo sapiens, 24 hours. In a few lines:
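HaCaT cells (20,000/well) in DMEM + 10% FBS were plated overnight at 37° C, then exposed to compound for 24 h at 37° C. Cells were fixed with PFA, permeabilized with 0.1% Triton/1.5% BSA and imaged by high-content imaging.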

For experiment [2], the system named is Phospho-YAP (SER127) in HaCaT cells. Put plainly: pYAP HTRF Assay (HaCaT Cells). The class given is cell-based, human. Particulars: Homo sapiens, 2 hours. Here is the method: The pYAP HTRF assay was performed using the Phospho-YAP (SER127) 10000 test kit (CisBio, catalogue number 64YAPPEH) according to manufacturer's instructions. Briefly, HaCaT cells were suspended at 1.1×10^6 cells/mL in DMEM (no phenol red)+10% FBS with penicillin-streptomycin-glutamine. 5 μL of cells were dispensed into 1536 well white solid bottom, tissue culture treated plates (5500 cells/well), and incubated for 48 hours at 37° C. 50 nL test compound was transferred into the assay plates containing HaCaT cells using Pintool (GNF) and incubated for 2 hours. […] The plates were incubated overnight (20 hrs) at room temperature covered with metal lids. Plates were read on Pherastar (BMG Labtech) for HTRF (665 nm/620 nm).

Experiment [3] has as its target LATS1 (Homo sapiens (Human), UniProt O95835). In words: LATS1 biochemical assay (Table 1A, Compound Examples 1-290; method in the earlier part).

SMILES strings stand for the structures. pEC50, pIC50: −log10 of the molar value. Some results are limits rather than exact numbers.

Sequence of LATS1 (O95835 whole entry, looked up): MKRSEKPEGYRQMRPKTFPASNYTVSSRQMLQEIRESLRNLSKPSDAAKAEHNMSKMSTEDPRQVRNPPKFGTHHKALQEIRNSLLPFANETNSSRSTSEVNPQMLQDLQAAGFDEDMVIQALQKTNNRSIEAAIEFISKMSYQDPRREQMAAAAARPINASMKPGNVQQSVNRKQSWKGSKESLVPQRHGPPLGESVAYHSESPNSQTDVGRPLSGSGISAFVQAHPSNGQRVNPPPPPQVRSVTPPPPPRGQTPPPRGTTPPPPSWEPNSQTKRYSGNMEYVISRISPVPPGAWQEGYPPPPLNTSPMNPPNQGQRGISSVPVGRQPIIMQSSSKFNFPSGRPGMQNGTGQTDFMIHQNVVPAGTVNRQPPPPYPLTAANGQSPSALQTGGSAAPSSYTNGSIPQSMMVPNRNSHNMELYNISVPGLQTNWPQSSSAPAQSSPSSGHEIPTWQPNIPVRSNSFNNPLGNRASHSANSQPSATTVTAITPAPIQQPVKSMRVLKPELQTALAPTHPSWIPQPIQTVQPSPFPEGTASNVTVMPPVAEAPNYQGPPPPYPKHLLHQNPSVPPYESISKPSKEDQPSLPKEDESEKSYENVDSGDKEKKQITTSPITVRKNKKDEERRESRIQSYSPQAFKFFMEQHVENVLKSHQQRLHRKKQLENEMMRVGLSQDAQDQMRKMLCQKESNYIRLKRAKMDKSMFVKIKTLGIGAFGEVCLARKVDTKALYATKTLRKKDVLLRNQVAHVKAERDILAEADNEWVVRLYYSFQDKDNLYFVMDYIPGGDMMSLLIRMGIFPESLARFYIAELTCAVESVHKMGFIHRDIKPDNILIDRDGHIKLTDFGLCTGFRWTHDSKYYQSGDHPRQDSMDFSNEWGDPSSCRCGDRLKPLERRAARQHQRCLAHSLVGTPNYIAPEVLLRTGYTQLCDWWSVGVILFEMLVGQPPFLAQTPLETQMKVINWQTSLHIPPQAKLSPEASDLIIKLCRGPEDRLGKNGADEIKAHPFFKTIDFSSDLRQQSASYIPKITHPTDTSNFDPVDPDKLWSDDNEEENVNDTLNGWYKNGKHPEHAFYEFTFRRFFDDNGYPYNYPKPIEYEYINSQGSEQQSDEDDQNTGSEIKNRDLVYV
Sequence of LATS1 (Q7L9L4 whole entry partner, looked up): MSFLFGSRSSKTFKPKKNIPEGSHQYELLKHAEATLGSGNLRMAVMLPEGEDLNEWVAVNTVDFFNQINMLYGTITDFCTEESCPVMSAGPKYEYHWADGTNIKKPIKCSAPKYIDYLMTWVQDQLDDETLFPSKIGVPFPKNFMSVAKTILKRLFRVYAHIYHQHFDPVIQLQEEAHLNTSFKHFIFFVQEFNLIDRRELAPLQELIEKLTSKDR

For orientation: pEC50 means the negative decadic logarithm of the EC50, by convention in mol/L. Broadly, the pIC50 is the IC50 on a negative log10 scale, so that one unit is a factor of ten. As to `CC1(Nc2nc(-c3ccncc3)nc3cnccc23)COC1` [Example 16, N-(3-methyloxetan-3-yl)-2-(pyridin-4-yl)pyrido[3,4-d]pyrimidin-4-amine], in experiment [1], the pEC50 was 4.80. The pIC50 was 5.01 in experiment [2] and 8.30 in experiment [3].
The corresponding values for `CC(O)C(C)(C)Nc1nc(-c2ccncc2)nc2cnccc12` (stereo not drawn) [Example 18, 3-methyl-3-{[2-(pyridin-4-yl)pyrido[3,4-d]pyrimidin-4-yl]amino}butan-2-ol] are 5.46, 5.82 and 8.22.
The corresponding values for `CCCCNc1nc(-c2ccncc2)nc2cnccc12` [Example 19, N-butyl-2-(pyridin-4-yl)pyrido[3,4-d]pyrimidin-4-amine] are 4.75, 4.61 and 8.22.
The corresponding values for `CC(C)(CCc1ccccc1)Nc1nc(-c2ccncc2)nc2cnccc12` [Example 20, N-(2-methyl-4-phenylbutan-2-yl)-2-(pyridin-4-yl)pyrido[3,4-d]pyrimidin-4-amine] are 5.29, 5.75 and 8.22.
As to `c1cc(-c2nc(NC3CC3)c3ccncc3n2)ccn1` [Example 21, N-cyclopropyl-2-(pyridin-4-yl)pyrido[3,4-d]pyrimidin-4-amine], the pEC50 in experiment [1] was 5.06. For the same molecule, the pIC50 in experiment [2] was 4.72; in experiment [3] it was 8.15.
The corresponding values for `CC(C)(CCS(C)(=O)=O)Nc1nc(-c2ccncc2)nc2cnccc12` [Example 22, N-(4-methanesulfonyl-2-methylbutan-2-yl)-2-(pyridin-4-yl)pyrido[3,4-d]pyrimidin-4-amine] are 4.89, 4.94 and 8.15.
The corresponding values for `CC(CO)(CO)Nc1nc(-c2ccncc2)nc2cnccc12` [Example 23, 2-methyl-2-{[2-(pyridin-4-yl)pyrido[3,4-d]pyrimidin-4-yl]amino}propane-1,3-diol] are 4.93, 5.02 and 8.00.
The corresponding values for `CC(O)C(C)Nc1nc(-c2ccncc2)nc2cnccc12` (stereo not drawn) [Example 24, 3-{[2-(pyridin-4-yl)pyrido[3,4-d]pyrimidin-4-yl]amino}butan-2-ol] are 4.48, 4.46 and 7.77.
As for `O[C@@H]1CCC[C@@H]1Nc1nc(-c2ccncc2)nc2cnccc12` [Example 26, (1R,2S)-2-{[2-(pyridin-4-yl)pyrido[3,4-d]pyrimidin-4-yl]amino}cyclopentan-1-ol], in experiment [1], the pEC50 is less than 4.00. The pIC50 in experiment [2] was 4.26; in experiment [3], 7.51.
The corresponding values for `COC(=O)C(C)(C)Nc1nc(-c2ccncc2)nc2cnccc12` [Example 32, Methyl 2-methyl-2-{[2-(pyridin-4-yl)pyrido[3,4-d]pyrimidin-4-yl]amino}propanoate] are less than 4.70, less than 5.00 and 7.33.
In experiment [1], `FC(F)(F)C(Cc1ccccc1)Nc1nc(-c2ccncc2)nc2cnccc12` (stereo not drawn) [Example 38, 2-(pyridin-4-yl)-N-(1,1,1-trifluoro-3-phenylpropan-2-yl)pyrido[3,4-d]pyrimidin-4-amine] had a negative-log EC50 (pEC50) of less than 4.70. Further, the pIC50 in experiment [2] was less than 5.00; in experiment [3], 6.62.
The corresponding values for `CS(=O)(=O)CCNc1nc(-c2ccncc2)nc2cnccc12` [Example 41, N-(2-methanesulfonylethyl)-2-(pyridin-4-yl)pyrido[3,4-d]pyrimidin-4-amine] are less than 4.70, less than 5.00 and 6.15.
The corresponding values for `O=C(O)CC(Nc1nc(-c2ccncc2)nc2cnccc12)C(F)(F)F` (stereo not drawn) [Example 44, 4,4,4-trifluoro-3-{[2-(pyridin-4-yl)pyrido[3,4-d]pyrimidin-4-yl]amino}butanoic acid] are less than 4.70, less than 5.00 and less than 5.60.
The corresponding values for `OCC1(Nc2nc(-c3ccncc3)nc3cnccc23)CCCC1` [Example 51, (1-{[2-(pyridin-4-yl)pyrido[3,4-d]pyrimidin-4-yl]amino}cyclopentyl)methanol] are 5.36, 4.24 and 8.22.
On to `COC1CC(Nc2nc(-c3ccncc3)nc3cnccc23)C1` (stereo not drawn) [Example 52, N-(3-methoxycyclobutyl)-2-(pyridin-4-yl)pyrido[3,4-d]pyrimidin-4-amine], for which the pEC50 in experiment [1] is less than 4.70. The pIC50 was 4.95 in experiment [2] and 7.92 in experiment [3].
The corresponding values for `CCOC(=O)C1(Nc2nc(-c3ccncc3)nc3cnccc23)CCC1` [Example 55, ethyl 1-{[2-(pyridin-4-yl)pyrido[3,4-d]pyrimidin-4-yl]amino}cyclobutane-1-carboxylate] are less than 4.70, less than 5.00 and 6.34.
In turn, `O=C(O)C1(Nc2nc(-c3ccncc3)nc3cnccc23)CCC1` [Example 56, 1-{[2-(pyridin-4-yl)pyrido[3,4-d]pyrimidin-4-yl]amino}cyclobutane-1-carboxylic acid] showed a pEC50 in experiment [1] of less than 4.70. Further, the pIC50 in experiment [2] was less than 5.00; in experiment [3], 5.94.
The corresponding values for `CCC(C)(C)Nc1nc(-c2ccncc2)nc2cnccc12` [Example 63, N-(2-methylbutan-2-yl)-2-(pyridin-4-yl)pyrido[3,4-d]pyrimidin-4-amine] are 6.47, 6.88 and 9.00.
Turning to `C#CC(C)(C)Nc1nc(-c2ccncc2)nc2cnccc12` [Example 69, N-(2-methylbut-3-yn-2-yl)-2-(pyridin-4-yl)pyrido[3,4-d]pyrimidin-4-amine], in experiment [1], the negative-log EC50 (pEC50) is 4.94. Also, the negative-log IC50 (pIC50) is 5.33 in experiment [2] and 8.52 in experiment [3].
The corresponding values for `CCC(CC)Nc1nc(-c2ccncc2)nc2cnccc12` [Example 73, N-(pentan-3-yl)-2-(pyridin-4-yl)pyrido[3,4-d]pyrimidin-4-amine] are 5.08, 5.04 and 8.22.
`CC(C)(CN1CCOCC1)Nc1nc(-c2ccncc2)nc2cnccc12` [Example 74] had a pEC50 in experiment [1] of 4.90. In addition, the pIC50 in experiment [2] was 5.47; in experiment [3], 8.22.
The corresponding values for `CC(C)(COC(C)(C)C)Nc1nc(-c2ccncc2)nc2cnccc12` [Example 75, N-[1-(tert-butoxy)-2-methylpropan-2-yl]-2-(pyridin-4-yl)pyrido[3,4-d]pyrimidin-4-amine] are 5.16, 5.42 and 8.10.
The corresponding values for `OCC(CC(F)(F)F)Nc1nc(-c2ccncc2)nc2cnccc12` (stereo not drawn) [Example 76, 4,4,4-trifluoro-2-{[2-(pyridin-4-yl)pyrido[3,4-d]pyrimidin-4-yl]amino}butan-1-ol] are 5.03, 5.19 and 8.05.
The corresponding values for `CCCCCNc1nc(-c2ccncc2)nc2cnccc12` [Example 77, N-pentyl-2-(pyridin-4-yl)pyrido[3,4-d]pyrimidin-4-amine] are 4.87, less than 4.00 and 8.05.
In experiment [1], `CCC(CO)Nc1nc(-c2ccncc2)nc2cnccc12` (stereo not drawn) [Example 78, 2-{[2-(pyridin-4-yl)pyrido[3,4-d]pyrimidin-4-yl]amino}butan-1-ol] had a pEC50 of 4.84. Further, the pIC50 was 4.92 in experiment [2] and 7.96 in experiment [3].
As for `CC(C)(Cc1ccc(F)cc1)Nc1nc(-c2ccncc2)nc2cnccc12` [Example 80, N-[1-(4-fluorophenyl)-2-methylpropan-2-yl]-2-(pyridin-4-yl)pyrido[3,4-d]pyrimidin-4-amine], in experiment [1], the pEC50 was 4.89. For the same molecule, the pIC50 in experiment [2] is 4.67; in experiment [3], 7.96.
`CC(C)(Nc1nc(-c2ccncc2)nc2cnccc12)c1ccccc1` [Example 81, N-(2-phenylpropan-2-yl)-2-(pyridin-4-yl)pyrido[3,4-d]pyrimidin-4-amine]: the pEC50 in experiment [1] was 4.77. In addition, the pIC50 in experiment [2] was 4.37; in experiment [3], 7.96.
In experiment [1], `Fc1ccccc1Nc1nc(-c2ccncc2)nc2cnccc12` [Example 82, N-(2-fluorophenyl)-2-(pyridin-4-yl)pyrido[3,4-d]pyrimidin-4-amine] showed a pEC50 of less than 4.70. Moreover, the figures for the pIC50 in experiment [2] and in experiment [3] were less than 4.00 and 7.89, respectively.
The corresponding values for `CC(C)(Nc1nc(-c2ccncc2)nc2cnccc12)c1ccc(F)cc1` [Example 83, N-[2-(4-fluorophenyl)propan-2-yl]-2-(pyridin-4-yl)pyrido[3,4-d]pyrimidin-4-amine] are 4.55, 4.38 and 7.77.
The corresponding values for `CNc1nc(-c2ccncc2)nc2cnccc12` [Example 86, N-methyl-2-(pyridin-4-yl)pyrido[3,4-d]pyrimidin-4-amine] are less than 4.70, 4.25 and 7.59.
The corresponding values for `OC1(CNc2nc(-c3ccncc3)nc3cnccc23)CCCC1` [Example 87, 1-({[2-(pyridin-4-yl)pyrido[3,4-d]pyrimidin-4-yl]amino}methyl)cyclopentan-1-ol] are less than 4.70, 4.29 and 7.52.
